15 molecules from patent publication US6608086B2, “Dihydropyridines and new uses thereof” (Synaptic Pharmaceutical Corporation, priority 1993, dated 2003) can be followed below.

Where a name gives a salt, the structure may show the parent alone. Read-outs that look alike come from different tables or passages of the source.

In one assay the target is T1, α2B receptor (Homo sapiens, UniProt P18089).
T1 construct: host or cells: LM(tk-) cells, line L-NGC-α2B
T1 sequence (P18089 1-450): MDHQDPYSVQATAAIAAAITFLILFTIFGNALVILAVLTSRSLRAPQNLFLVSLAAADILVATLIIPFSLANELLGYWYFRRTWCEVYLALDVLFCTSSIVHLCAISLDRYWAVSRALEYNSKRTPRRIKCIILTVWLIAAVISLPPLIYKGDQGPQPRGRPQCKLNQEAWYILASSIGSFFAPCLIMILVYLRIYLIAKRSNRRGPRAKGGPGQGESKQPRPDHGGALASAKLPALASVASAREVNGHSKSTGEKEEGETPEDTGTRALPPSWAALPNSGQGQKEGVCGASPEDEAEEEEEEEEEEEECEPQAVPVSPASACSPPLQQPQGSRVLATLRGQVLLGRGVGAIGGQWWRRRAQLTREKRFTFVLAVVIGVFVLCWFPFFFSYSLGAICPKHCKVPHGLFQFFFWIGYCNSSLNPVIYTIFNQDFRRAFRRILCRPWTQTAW
As to the kind of experiment: Competition binding, [3H]rauwolscine, human α2B receptor. The gist of the method:
(§1)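 Using 25 mM glycylglycine buffer at pH 7.6 (room temperature), membranes from LM(tk−) cells carrying α2A, α2B or α2C were competed against 0.5 nM [3H]rauwolscine to equilibrium. Separation was by GF/B filtration; phentolamine (10 μM) set nonspecific binding.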

In another assay the target is T2, α2C receptor (Homo sapiens, UniProt P18825).
T2 construct: host or cells: LM(tk-) cells, line L-α2C
T2 sequence (P18825 1-462): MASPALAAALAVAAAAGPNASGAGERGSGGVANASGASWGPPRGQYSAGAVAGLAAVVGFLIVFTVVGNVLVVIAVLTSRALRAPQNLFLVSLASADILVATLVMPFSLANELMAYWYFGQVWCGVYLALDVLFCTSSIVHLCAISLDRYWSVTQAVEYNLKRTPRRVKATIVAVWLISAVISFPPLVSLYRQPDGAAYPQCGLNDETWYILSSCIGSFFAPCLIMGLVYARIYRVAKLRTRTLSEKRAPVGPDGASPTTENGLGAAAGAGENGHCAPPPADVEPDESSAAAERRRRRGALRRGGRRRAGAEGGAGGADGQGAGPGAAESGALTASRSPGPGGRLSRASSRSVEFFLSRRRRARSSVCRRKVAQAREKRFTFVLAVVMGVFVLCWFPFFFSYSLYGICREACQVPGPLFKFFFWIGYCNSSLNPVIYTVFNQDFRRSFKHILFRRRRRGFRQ
As to the kind of experiment: Competition binding, [3H]rauwolscine, human α2C receptor. The procedure, abridged: as §1

The target in assay [1] is T3, α1C Human Adrenergic Receptor (Homo sapiens, UniProt P35348).
T3 construct: The entire coding region of α1C (1401 bp); expressed in transfected cells
T3 sequence (P35348 1-466): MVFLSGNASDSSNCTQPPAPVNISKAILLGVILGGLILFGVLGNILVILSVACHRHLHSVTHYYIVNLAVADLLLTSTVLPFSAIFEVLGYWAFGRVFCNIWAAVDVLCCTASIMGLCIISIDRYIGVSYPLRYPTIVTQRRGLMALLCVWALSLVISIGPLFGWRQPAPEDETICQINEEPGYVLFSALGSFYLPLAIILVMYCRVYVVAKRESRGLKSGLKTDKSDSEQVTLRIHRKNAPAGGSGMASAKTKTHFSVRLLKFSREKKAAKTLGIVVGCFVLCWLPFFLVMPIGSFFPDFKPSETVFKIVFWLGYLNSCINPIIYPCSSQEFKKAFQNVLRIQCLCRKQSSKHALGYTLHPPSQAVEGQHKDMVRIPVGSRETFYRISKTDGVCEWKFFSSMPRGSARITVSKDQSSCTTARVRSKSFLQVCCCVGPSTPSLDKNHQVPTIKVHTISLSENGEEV
As to the kind of experiment: Radioligand binding, [3H]prazosin, cloned human α1C adrenergic receptor. The gist of the method: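 LM(tk−) membranes (stable human α1C); [3H]prazosin 0.5 nM; 37° C., 20 min; Tris-HCl 50 mM/MgCl2 1 mM/ascorbate 0.1%, pH 7.5; NSB 10 μM phentolamine; GF/B filtration.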

Setting [2] is: [3H]rauwolscine, human α2B receptor, LM(tk−) cells.
[3] abbreviates: [3H]rauwolscine, human α2C receptor, LM(tk−) cells.
[4] abbreviates: cloned human α1C receptor, LM(tk−) cell membranes.
Where [5] appears, read: [3H]rauwolscine, human α2B receptor, LM(tk−) cells, read-out: pKi alpha-2 2b (converted).
Where [6] appears, read: [3H]rauwolscine, human α2C receptor, LM(tk−) cells, read-out: pKi alpha-2 2c (converted).
Where [7] appears, read: cloned human α1C receptor, LM(tk−) cell membranes, read-out: pKi alpha-1 1c (converted).
Where [8] appears, read: PKi alpha-2 2b, [3H]rauwolscine, human receptor, LM(tk-) cell lysates, mean.
Setting [9] is: PKi alpha-1 1c, cloned human receptor, LM(tk-) cell membranes, mean.
[10] abbreviates: [3H]rauwolscine, human receptor, LM(tk-) cell lysates, mean, read-out: PKi alpha-2 2b (converted).
Where [11] appears, read: [3H]rauwolscine, human receptor, LM(tk-) cell lysates, mean, read-out: PKi alpha-2 2c (converted).
The mark [12] stands for this setting: cloned human receptor, LM(tk-) cell membranes, mean, read-out: PKi alpha-1 1c (converted).

Regarding `CCOC(=O)C1=C(CNCCCN2CCC(c3ccccc3)(c3ccccc3)CC2)NC(C)=C(C(=O)OC)C1c1ccc([N+](=O)[O-])cc1.Cl.O` (stereo not drawn) [Example 90, 3-Ethoxycarbonyl-1,4-dihydro-5-methoxycarbonyl-6-methyl-4-(4-nitro)phenyl-2-(N-(3-(4,4,-diphenylpiperidin-1-yl)propyl)amino)methylpyridine, hydrochloride hydrate], the “pKi alpha-2 2b” value on α2B receptor (setting [2]) is 6.04. In addition, the “pKi alpha-2 2c” value at α2C receptor (setting [3]) is reported as 6.79. For the same molecule, the “pKi alpha-1 1c” value in assay [1] (setting [4]) is on record as 7.56.
Take `COC(=O)C1=C(C)NC2=C(C(=O)N(CCCN3CCC(c4ccccc4)(c4ccccc4)CC3)C2)C1c1ccc([N+](=O)[O-])cc1.Cl.O` (stereo not drawn) [Example 91, 1,4,7,7-Tetrahydro-3-methoxycarbonyl-6-methyl-5-oxo-4-(4-nitrophenyl)-6-(3-(4,4-diphenylpiperidin-1-yl)) propylpyrrolo[3,4-b]pyridine, hydrochloride hydrate]: the “pKi alpha-2 2b” value on α2B receptor (setting [2]) worked out at 6.00. The “pKi alpha-2 2c” value on α2C receptor (setting [3]) was determined as 6.31. In addition, the “pKi alpha-1 1c” value in assay [1] (setting [4]) is 8.04.
For `CCC1=C(C(N)=O)C(c2ccc([N+](=O)[O-])cc2)C(C(=O)NCCCN2CCC(O)(c3ccccc3)CC2)=CN1CC.Cl.O` (stereo not drawn) [Example 101, 5-Carboxamido-1,6-diethyl-1,4-dihydro-3-{N-[3-(4-hydroxy-4-phenylpiperidin-1-yl)propyl]}carboxamido-4-(4-nitrophenyl)pyridine hydrochloride hydrate], the “pKi alpha-2 2b” value on α2B receptor (setting [2]) came to 6.18. The “pKi alpha-2 2c” value at α2C receptor (setting [3]) worked out at 6.04. In assay [1] (setting [4]), the “pKi alpha-1 1c” value is given as 8.54.
In the case of `CCC1=C(C(N)=O)C(c2ccc([N+](=O)[O-])cc2)C(C(=O)NCCCN2CCN(c3ccccc3)CC2)=C(CC)N1` (stereo not drawn) [Example 104, 5-Carboxamido-2,6-diethyl-1,4-dihydro-4-(4-nitrophenyl)-3-{N-[3-(4-phenylpiperazin-1-yl)propyl]}carboxamido-pyridine hydrochloride hydrate], the Ki at α2B receptor (setting [5]) was 56.2 nM; at α2C receptor (setting [6]), 15.8 nM; in assay [1] (setting [7]), 3.24 nM.
For `CCC1=C(C(N)=O)C(c2ccc([N+](=O)[O-])cc2)C(C(=O)NCCCN2CCC(c3ccccc3)(c3ccccc3)CC2)=C(CC)N1` (stereo not drawn) [Example 120, 5-Carboxamido-2,6-diethyl-1,4-dihydro-4-(4-nitrophenyl)-3-{N-[3-(4,4-diphenylpiperidin-1-yl)propyl]} carboxamidopyridine], at α2B receptor (setting [2]), the “pKi alpha-2 2b” value worked out at 6.59. In addition, on α2C receptor (setting [3]), the “pKi alpha-2 2c” value was 6.72. For the same molecule, in assay [1] (setting [4]), the “pKi alpha-1 1c” value is 8.97.
Take `CCC1=C(C(N)=O)C(c2ccc([N+](=O)[O-])cc2)C(C(=O)NCCCN2CCC(c3ccccc3)CC2)=C(CC)N1` (stereo not drawn) [Example 121, 5-Carboxamido-2,6-diethyl-1,4-dihydro-4-(4-nitrophenyl)-3-{N-[3-(4-phenylpiperidin-1-yl)propyl]}carboxamidopyridine]: the Ki at α2B receptor (setting [5]) was 257 nM; on α2C receptor (setting [6]) it was 191 nM; in assay [1] (setting [7]), 1.32 nM.
As for `CCC1=C(C(N)=O)C(c2ccc([N+](=O)[O-])cc2)C(C(=O)NC2CCN(CCc3c[nH]c4ccccc34)CC2)=CN1CC` (stereo not drawn) [Example 122, 5-Carboxamido-1,4-dihydro-3-(N-{1-[2-(3-indolyl)ethyl]piperidin-4-yl}) carboxamido-1,6-diethyl-4-(4-nitrophenyl)pyridine], the “pKi alpha-2 2b” value on α2B receptor (setting [2]) is on record as 7.35. In addition, at α2C receptor (setting [3]), the “pKi alpha-2 2c” value worked out at 6.53. Besides, the “pKi alpha-1 1c” value in assay [1] (setting [4]) was 7.71.
Regarding `CCC1=C(C(N)=O)C(c2ccc([N+](=O)[O-])cc2)C(C(=O)NC2CCN(CCc3c[nH]c4ccccc34)CC2)=CN1CC` (stereo not drawn) [Example 123, 5-Carboxamido-1,6-diethyl-1,4-dihydro-3-(N-{1-[2-(3-indolyl)ethyl]piperidin-4-yl}) carboxamide-4-(4-nitrophenyl)pyridine], the “pKi alpha-2 2b” value at α2B receptor (setting [2]) was determined as 6.87. For the same molecule, the “pKi alpha-2 2c” value on α2C receptor (setting [3]) was 6.42. Moreover, the “pKi alpha-1 1c” value in assay [1] (setting [4]) is recorded as 8.3.
For the molecule `COc1ccccc1N1CCN(CCCNC(=O)C2=C(C)NC(C)=C(C(N)=O)C2c2ccc([N+](=O)[O-])cc2)CC1` (stereo not drawn) [Example 124], the values for the Ki (on α2B receptor (setting [5]); on α2C receptor (setting [6]); in assay [1] (setting [7])) were 200 nM, 44.7 nM and 1.95 nM, respectively.
Turning to `CCC1=C(C(=O)NC)C(c2ccc([N+](=O)[O-])cc2)C(C(=O)NCCCN2CCC(C#N)(c3ccccc3)CC2)=C(CC)N1` (stereo not drawn) [Example 126, 3-{N-[3-(4-Cyano-4-phenylpiperidin-1-yl)propyl]}carboxamido-1,4-dihydro-2,6-diethyl-5-(1-methyl)carboxamido-4-(4-nitrophenyl)pyridine], the “pKi alpha-2 2b” value at α2B receptor (setting [2]) came to 5.63. Also, the “pKi alpha-2 2c” value at α2C receptor (setting [3]) worked out at 5.36. Further, in assay [1] (setting [4]), the “pKi alpha-1 1c” value was determined as 7.95.
Consider `CNC(=O)C1=C(C)NC(C)=C(C(=O)NCCCN2CCC(c3ccccc3)(c3ccccc3)CC2)C1c1ccc2c(c1)OCCO2` (stereo not drawn) [Example 163], for which the Ki was 1700 nM at α2B receptor (setting [8]); 1230 nM at α2C receptor (PKi alpha-2 2c, [3H]rauwolscine, human receptor, LM(tk-) cell lysates, mean); 18.6 nM in assay [1] (setting [9]).
`CCC1=C(C(N)=O)C(c2ccc([N+](=O)[O-])cc2)C(C(=O)NCCCN2CCC(C(=O)OC)(c3ccccc3)CC2)=C(CCCCN=[N+]=[N-])N1` (stereo not drawn) [Example 165, 2-(4-Azidobutyl)-3-{N-[3-(4-methoxycarbonyl-4-phenylpiperidin-1-yl)propyl]}carboxamido-5-carboxamido-6-ethyl-1,4-dihydro-4-(4-nitrophenyl)pyridine]: the Ki at α2B receptor (setting [10]) is 1950 nM; on α2C receptor (setting [11]), 1510 nM; in assay [1] (setting [12]), 0.501 nM.
On to `CCC1=C(C(N)=O)C(c2ccc([N+](=O)[O-])cc2)C(C(=O)NCCCN2CCC(C(=O)OC)(c3ccccc3)CC2)=C(CCCCN)N1` (stereo not drawn) [Example 166, 2-(4-Aminobutyl)-5-carboxamido-6-ethyl-1,4-dihydro-3-{N-[3-(4-methoxycarbonyl-4-phenylpiperidin-1-yl)propyl]}carboxamido-4-(4-nitrophenyl)pyridine], for which the Ki was 3890 nM at α2B receptor (setting [10]), 1020 nM at α2C receptor (setting [11]) and 1.29 nM in assay [1] (setting [12]).
As for `COC(=O)C1=C(C)NC(CCCCN)=C(C(=O)NCCCN2CCC(c3ccccc3)(c3ccccc3)CC2)C1c1ccc([N+](=O)[O-])cc1` (stereo not drawn) [Example 170, 2-(4-Aminobutyl)-1,4-dihydro-5-methoxycarbonyl-6-methyl-4-(4-nitrophenyl)-3-{N-[3-(4,4-diphenylpiperidin-1-yl)propyl]}carboxamidopyridine], the Ki at α2B receptor (PKi alpha-2 2b) is 8710 nM; at α2C receptor (PKi alpha-2 2c) it was 4900 nM; in assay [1] (setting [12]), 1.26 nM.
For the molecule `CCC1=C(C(N)=O)C(c2ccc([N+](=O)[O-])cc2)C(C(=O)NCCCN2CCC(c3ccccc3)(c3ccccc3)CC2)=C(CCCCN)N1` (stereo not drawn) [Example 171, 2-(4-Aminobutyl)-5-carboxamido-6-ethyl-1,4-dihydro-4-(4-nitrophenyl)-3-{N-[3-(4,4-diphenylpiperidin-1-yl)propyl]}carboxamidopyridine], the Ki at α2B receptor (setting [8]) is 2000 nM; on α2C receptor (setting [11]), 575 nM; in assay [1] (setting [9]) it was 1.74 nM.
